We go through 18 compounds from patent US8748434B2 (Hoffman-La Roche Inc., priority 2012, dated 2014).

The assay concerns the target T1, human GPBAR1 receptor (Homo sapiens, UniProt Q8TDU6).
T1 construct: expressed in transfected cells
T1 sequence (Q8TDU6 1-330): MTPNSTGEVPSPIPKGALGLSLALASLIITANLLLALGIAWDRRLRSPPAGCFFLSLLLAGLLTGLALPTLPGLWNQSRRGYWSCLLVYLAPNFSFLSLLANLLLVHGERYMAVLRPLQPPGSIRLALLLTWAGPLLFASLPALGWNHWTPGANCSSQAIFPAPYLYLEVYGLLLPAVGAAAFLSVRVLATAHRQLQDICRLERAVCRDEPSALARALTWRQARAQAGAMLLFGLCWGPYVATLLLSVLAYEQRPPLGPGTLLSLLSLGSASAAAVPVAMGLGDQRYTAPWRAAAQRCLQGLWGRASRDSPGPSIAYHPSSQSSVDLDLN
Briefly: functional cAMP assay in CHO-dhfr(minus) cells expressing human GPBAR1 receptors. The following applies: CHO-dhfr(minus) cells expressing human GPBAR1, compounds incubated 30 min at 30° C. It is filed as cell-based. An excerpt: The cDNA of the human GPBAR1 receptor (Genbank: NM 170699 with the exception of a silent C:G mutation at position 339 from the start codon) was amplified by polymerase chain reaction (PCR) from human cDNA and inserted into pCineo (Promega) by standard methods (Current Protocols in Molecular Biology, Wiley Press, ed. Ausubel et al.). The final clone was verified by DNA sequence analysis. The plasmid was transfected into CHO cells deficient in dihydrofolate reductase activity (CHO-dhfr−) using Lipofectamine plus (Invitrogen). Clones were isolated in limited dilution conditions and identified by activities in the cAMP assay using lithocholic acid as agonist. A clonal cell line displaying the greatest activity in cAMP increases was selected and identified as giving consistently good responses for up to at least 20 passages.
CHO-dhfr(minus) cells expressing human GPBAR1 receptors are seeded 17-24 hours prior to the experiment 50.000 cells per well in a black 96 well plate with flat clear bottom (Corning Costar #3904) in DMEM (Invitrogen No. 31331), 1×HT supplement, with 10% fetal calf serum and incubated at 5% CO2 and 37° C. in a humidified incubator. The growth medium was exchanged with Krebs Ringer Bicarbonate buffer with 1 mM IBMX and incubated at 30° C. for 30 min. Compounds were added to a final assay volume of 100 μl and incubated for 30 min at 30° C. The assay was stopped by the addition of 50 μl lysis reagent (Tris, NaCl, 1.5% Triton X100, 2.5% NP40, 10% NaN3) and 50 μl detection solutions (20 μM mAb Alexa700-cAMP 1:1, and 48 μM Ruthenium-2-AHA-cAMP) and shaked for 2 h at room temperature. The time-resolved energy transfer is measured by a TRF reader (Evotec Technologies GmbH, Hamburg Germany), equipped with a ND:YAG laser as excitation source. The plate is measured twice with the excitation at 355 nm and at the emission with a delay of 100 ns and a gate of 100 ns, total exposure time 10 s at 730 (bandwidth 30 nm) or 645 nm (bandwidth 75 nm), respectively. The measured signal at 730 nm has to be corrected for the ruthenium background, the direct excitation of Alexa and the buffer control. The FRET signal is calculated as follows: FRET=T730−Alexa730−P(T645−B645) with P=R^u730−B730/Ru645−B645, where T730 is the test well measured at […], T645 is the test well measured at 645 nm, B730 and B645 are the buffer controls at 730 nm and 645 nm, respectively. cAMP content is determined from the function of a standard curve spanning from 10 μM to 0.13 nM cAMP.
EC50 values were determined using Activity Base analysis (ID Business Solution, Limited). The EC50 values for a wide range of bile acids generated from this assay were in agreement with the values published in the scientific literature. Specificity for GPBAR1 was tested in non-transfected CHO cells in the same assay as above.
As usually defined, the EC50 is the midpoint of the concentration-response curve. Low readings indicate greater potency, high ones weaker potency. On to `COc1cc(F)ccc1-c1cc(Cl)nnc1N(C)C(=O)c1cc(C(F)(F)F)cc(S(C)(=O)=O)c1` [Example 1, N-[6-Chloro-4-(4-fluoro-2-methoxy-phenyl)-pyridazin-3-yl]-3-methanesulfonyl-N-methyl-5-trifluoromethyl-benzamide], for which it took 0.165 µM to reach a half-maximal effect (EC50).

On to `COc1cc(F)ccc1-c1ccnnc1N(C)C(=O)c1cc(C(F)(F)F)cc(S(C)(=O)=O)c1` [Example 2, N-[4-(4-Fluoro-2-methoxy-phenyl)-pyridazin-3-yl]-3-methanesulfonyl-N-methyl-5-trifluoromethyl-benzamide], for which the EC50 was found to be 0.075 µM. As to `COc1cc(F)ccc1-c1cc(C)nnc1N(C)C(=O)c1cc(C(F)(F)F)cc(S(C)(=O)=O)c1` [Example 3, N-[4-(4-Fluoro-2-methoxy-phenyl)-6-methyl-pyridazin-3-yl]-3-methanesulfonyl-N-methyl-5-trifluoromethyl-benzamide], the EC50 is 0.178 µM. In turn, `Cc1ccccc1-c1cc(Cl)nnc1N(C)C(=O)c1cc(C(F)(F)F)cc(S(C)(=O)=O)c1` [Example 4, N-(6-Chloro-4-o-tolyl-pyridazin-3-yl)-3-methanesulfonyl-N-methyl-5-trifluoromethyl-benzamide] showed an EC50 of 2.18 µM. For `CN(C(=O)c1cc(C(F)(F)F)cc(S(C)(=O)=O)c1)c1nnc(Cl)cc1-c1ccccc1` [Example 5, N-(6-Chloro-4-phenyl-pyridazin-3-yl)-3-methanesulfonyl-N-methyl-5-trifluoromethyl-benzamide], the midpoint of the response, the EC50, lay at 2.69 µM. Take `CN(C(=O)c1cc(C(F)(F)F)cc(S(=O)(=O)N2CCOCC2)c1)c1nnc(Cl)cc1-c1ccccc1` [Example 6]: a half-maximal response (EC50) required 0.427 µM. Take `CN(C(=O)c1cc(C(F)(F)F)cc(C(F)(F)F)c1)c1nnc(Cl)cc1-c1ccccc1` [Example 7, N-(6-Chloro-4-phenyl-pyridazin-3-yl)-N-methyl-3,5-bis-trifluoromethyl-benzamide]: the 50% effective concentration (EC50) turned out to be 0.299 µM. `COc1ncccc1-c1cc(Cl)nnc1N(C)C(=O)c1cc(C(F)(F)F)cc(S(C)(=O)=O)c1` [Example 8, N-[6-Chloro-4-(2-methoxy-pyridin-3-yl)-pyridazin-3-yl]-3-methanesulfonyl-N-methyl-5-trifluoromethyl-benzamide] showed an EC50 of 1.52 µM. Compared with the last compound, the EC50 is about 5.1-fold higher. `Cc1ccccc1-c1cc(Cl)nnc1N(C)C(=O)c1cc(C(F)(F)F)cc(S(=O)(=O)CCCC(=O)O)c1` [Example 10, 4-{3-[(6-Chloro-4-o-tolyl-pyridazin-3-yl)-methyl-carbamoyl]-5-trifluoromethyl-benzenesulfonyl}-butyric acid] gave an EC50 of 8.18 µM. This EC50 lies about 5.4-fold higher than the previous one. Next, `CN(C(=O)c1cc(C(F)(F)F)cc(S(C)(=O)=O)c1)c1nnc(Cl)cc1-c1cccnc1OCC(F)(F)F` [Example 11, N-{6-Chloro-4-[2-(2,2,2-trifluoro-ethoxy)-pyridin-3-yl]-pyridazin-3-yl}-3-methanesulfonyl-N-methyl-5-trifluoromethyl-benzamide]: 2.39 µM.

In turn, `CN(C(=O)c1cc(C(F)(F)F)cc(S(C)(=O)=O)c1)c1nnccc1-c1cccnc1OCC(F)(F)F` [Example 12, 3-Methanesulfonyl-N-methyl-N-{4-[2-(2,2,2-trifluoro-ethoxy)-pyridin-3-yl]-pyridazin-3-yl}-5-trifluoromethyl-benzamide] displayed an EC50 of 0.16 µM. Turning to `Cc1cc(-c2cccnc2OCC(F)(F)F)c(N(C)C(=O)c2cc(C(F)(F)F)cc(S(C)(=O)=O)c2)nn1` [Example 13, 3-Methanesulfonyl-N-methyl-N-{6-methyl-4-[2-(2,2,2-trifluoro-ethoxy)-pyridin-3-yl]-pyridazin-3-yl}-5-trifluoromethyl-benzamide], the EC50 came out at 3.91 µM.

On to `COc1cc(F)ccc1-c1cnncc1N(C)C(=O)c1cc(C(F)(F)F)cc(S(C)(=O)=O)c1` [Example 14, N-[5-(4-Fluoro-2-methoxy-phenyl)-pyridazin-4-yl]-3-methanesulfonyl-N-methyl-5-trifluoromethyl-benzamide], for which a half-maximal response (EC50) required 0.23 µM. Turning to `Cc1ccccc1-c1cnncc1N(C)C(=O)c1cc(C(F)(F)F)cc(S(C)(=O)=O)c1` [Example 15, 3-Methanesulfonyl-N-methyl-N-(5-o-tolyl-pyridazin-4-yl)-5-trifluoromethyl-benzamide], the EC50 stood at 0.429 µM.

`Cc1ccccc1-c1cnncc1N(C)C(=O)c1cc(Cl)cc(S(C)(=O)=O)c1` [Example 16, 3-Chloro-5-methanesulfonyl-N-methyl-N-(5-o-tolyl-pyridazin-4-yl)-benzamide] showed an EC50 of 0.663 µM. `Cc1ccccc1-c1cnncc1N(C)C(=O)c1cc(C(F)(F)F)cc(S(=O)(=O)CCCC(=O)OC(C)(C)C)c1` [Example 17, 4-{3-[Methyl-(5-o-tolyl-pyridazin-4-yl)-carbamoyl]-5-trifluoromethyl-benzenesulfonyl}-butyric acid tert-butyl ester] yielded an EC50 of 0.775 µM. The EC50 values of the last two compounds are within 1.5-fold of each other. Consider `Cc1ccccc1-c1cnncc1N(C)C(=O)c1cc(C(F)(F)F)cc(S(=O)(=O)CCCC(=O)O)c1` [Example 18, 4-{3-[Methyl-(5-o-tolyl-pyridazin-4-yl)-carbamoyl]-5-trifluoromethyl-benzenesulfonyl}-butyric acid], for which the EC50 was > 10 µM. Compound `Cc1ccccc1-c1ncncc1N(C)C(=O)c1cc(C(F)(F)F)cc(C(F)(F)F)c1` [Example 19, N-Methyl-N-(4-o-tolyl-pyrimidin-5-yl)-3,5-bis-trifluoromethyl-benzamide] yielded an EC50 of 1.48 µM.
